Assay results taken from patent US7572775B2, “Method of inhibiting intestinal polyps” (Japan as Represented by Director General of Agency of …, priority 2004, dated 2009).
Marks after values point to notes of the source that are not given here.

Tested on: Min mice of a familial adenomatous polyposis model (Apc gene deficient mice, C57BL/6-ApcMin/+)
Assay: Intestinal polyp suppression test (intestinal polyp assay) in Min mice
Assay type: in vivo, mouse
Details: for Number of polyps/mouse, colon / Number of polyps/mouse, small intestine, central / Number of polyps/mouse, small intestine, distal / Number of polyps/mouse, small intestine, proximal / Number of polyps/mouse, total / Number of polyps, percentage of the result for the 0 dose (control) group, small intestine, central / Number of polyps, percentage of the result for the 0 dose (control) group, small intestine, distal / Number of polyps, percentage of the result for the 0 dose (control) group, small intestine, proximal / Number of polyps, percentage of the result for the 0 dose (control) group, colon / Number of polyps, percentage of the result for the 0 dose (control) group, total: male Min mice; for Number of polyps/mouse, colon / Number of polyps/mouse, small intestine, central / Number of polyps/mouse, small intestine, distal / Number of polyps/mouse, small intestine, proximal / Number of polyps/mouse, total: average ± SE; for Number of polyps, percentage of the result for the 0 dose (control) group, small intestine, proximal: p < 0.01 vs control
Procedure: The experimental animals were male Min mice of a familial adenomatous polyposis model (Apc (Adenomatous polyposis coli) gene deficient mice, C57BL/6-ApcMin/+, Jackson Laboratory, Bar Harbor, Me.). These mice were purchased at age 5 weeks, and acclimatized for 2 weeks to laboratory conditions (24±2° C., humidity 55%, 12 hours light/12 hours dark cycle, free access to feed and water) before being used in the tests. The feed was “AIN-76A” basic feed (Clea Japan).
Wild-type […] mice (from the same source) were subjected to the same test as a control.
Compound A was used as the experimental medicine. The compound was mixed to a specific concentration (400 ppm or 800 ppm) with the AIN-76A basic feed for use in the tests.
Feed comprising a specific amount of the experimental medicine mixed to a specific concentration with basic feed (AIN-76A) was administered to the experimental group mice (2 groups of 10 mice) and comparison group mice (1 group of 10 mice) for 13 weeks from age 7 weeks to age 20 weeks (natural feeding). When death was confirmed during the experiment, however, administration was naturally discontinued.
A group of 10 mice receiving basic feed (AIN-76A) without the experimental medicine added for the same length of time was set up as a control group (experimental drug non-administration group).
13 weeks after the start of the experiment the mice in all groups (excluding those which had died) were euthanized, and an intestinal polyp assay was performed as follows.
The intestines were removed from the mice in all groups, placed in phosphate buffer containing 10% formalin, and then separated into four parts: (1) the colon, (2) the proximal part of the small intestine (about 4 cm long beginning at the pylorus), (3) the central part of the small intestine (the center of the remaining half of the small intestine) and (4) the distal part of the small intestine (the distal part of the remaining half of the small intestine). Each part was opened longitudinally, and fixed flat between sheets of filter paper in phosphate buffer containing 10% formalin.
The number and size of polyps and their distribution in the intestines were counted, measured and evaluated under a stereoscopic microscope. These methods are described in the literature reference(Watanabe, K. et al., “Role of the prostaglandin E receptor subtype EP1 in colon carcinogenesis”, Cancer Res., 59, 5093-6 (1999)).

[1] = 400 ppm in AIN-76A feed for 13 weeks
[2] = 400 ppm in feed for 13 weeks, p < 0.05 vs control
[3] = 800 ppm in AIN-76A feed for 13 weeks
[4] = 800 ppm in feed for 13 weeks, p < 0.05 vs control

SMILES: CCOP(=O)(Cc1ccc(C(=O)Nc2ccc(Br)cc2C#N)cc1)OCC [Compound A, 4-diethoxyphosphinoylmethyl-N-(4-bromo-2-cyanophenyl)benzamide]
- Number of polyps by polyp diameter (FIG. 1) (400 ppm and 800 ppm in feed, Min mice, polyp diameter (mm)): reduction in the number of polyps of all sizes
- Number of polyps/mouse, colon [1]: 0.4 ± 0.2 polyps/mouse
- Number of polyps/mouse, small intestine, central [1]: 16.1 ± 3.8 polyps/mouse
- Number of polyps/mouse, small intestine, distal [1]: 33.0 ± 6.5 polyps/mouse
- Number of polyps/mouse, small intestine, proximal [1]: 8.5 ± 1.4 polyps/mouse
- Number of polyps/mouse, total [1]: 58.0 ± 10.8 polyps/mouse
- Number of polyps, percentage of the result for the 0 dose (control) group, small intestine, central (400 ppm in feed for 13 weeks): (43) percentage
- Number of polyps, percentage of the result for the 0 dose (control) group, small intestine, distal (400 ppm in feed for 13 weeks): (55) percentage
- Number of polyps, percentage of the result for the 0 dose (control) group, small intestine, proximal (400 ppm in feed for 13 weeks): (37)^d percentage
- Number of polyps, percentage of the result for the 0 dose (control) group, colon [2]: (38)^c percentage
- Number of polyps, percentage of the result for the 0 dose (control) group, total [2]: (48)^c percentage
- Mice that died during the experiment (death due to bleeding from polyps) (400 ppm in feed, group of 10 Min mice, 13 weeks, 3 died in the control group): 2 mice
- Number of polyps/mouse, colon [3]: 0.3 ± 0.2 polyps/mouse
- Number of polyps/mouse, small intestine, central [3]: 13.8 ± 2.6 polyps/mouse
- Number of polyps/mouse, small intestine, distal [3]: 30.5 ± 5.0 polyps/mouse
- Number of polyps/mouse, small intestine, proximal [3]: 5.9 ± 1.0 polyps/mouse
- Number of polyps/mouse, total [3]: 50.5 ± 7.8 polyps/mouse
- Number of polyps, percentage of the result for the 0 dose (control) group, small intestine, proximal (800 ppm in feed for 13 weeks): (26)^d percentage
- Number of polyps, percentage of the result for the 0 dose (control) group, colon [4]: (30)^c percentage
- Number of polyps, percentage of the result for the 0 dose (control) group, small intestine, central [4]: (37)^c percentage
- Number of polyps, percentage of the result for the 0 dose (control) group, small intestine, distal [4]: (51)^c percentage
- Number of polyps, percentage of the result for the 0 dose (control) group, total [4]: (42)^c percentage
- Polyp suppression effect (dosage of either 400 ppm or 800 ppm in feed, Min mice): excellent polyp suppression effect
